The results in this text go back to paper PMC8879074, “A Novel Small Molecular Prostaglandin Receptor EP4 Antagonist, L001, Suppresses Pancreatic Cancer Metastasis” (Molecules, 2022).

A word on the IC50: it is the midpoint of a concentration-inhibition curve.

A short description of data set [1]: Body weight of mice in Pan02-Luc metastasis model. Type of data set: in vivo, C57BL/6 mice. Particulars: L001 75 mg/kg p.o. daily; gemcitabine 25 mg/kg i.p. twice a week; n = 6. As for the experimental part:
(§1) Male C57/BL6 mice (6–8 weeks) were obtained from the National Rodent Laboratory Animal Resources (NRLAR, Shanghai, China). All mice were housed according to Institutional Animal Care and Use Committee guidelines and under a protocol approved by East China Normal University Ethics Committee with respect to animal care and welfare assurance. The bioluminescent liver metastasis mouse model was established as described previously. In brief, 2 × 10^6 Pan02/luc cells suspended in 50 μL of PBS were injected into mice spleen. […] Tumor metastasis was monitored by using an in vivo imaging system following intraperitoneal injection with D-Luciferin (2 mg per mouse; Promega). Bioluminescence intensity was recorded every seven days by a Xenogen IVIS-200 Optical in vivo imaging system (PerkinElmer; Waltham, MA, USA) for up to 4 weeks. The mouse body weight was measured every other day. Survival curve analysis was performed using GraphPad Prism 7.

For another data set, the target named is T1, rat EP4 (Rattus norvegicus, UniProt P43114).
T1 construct: expressed in transfected cells; host or cells: CHO-Gα16
In words: Calcium flux assay, rat EP4. Type of data set: cell-based. As to the method: (§2) Calcium flux assay was conducted as described in our previous study. Briefly, CHO-Gα16 cells were transfected, respectively, with human EP1, human EP2, human EP3, human EP4, monkey EP4, mouse EP4 and rat EP4 overexpression constructs using lipofectamine 2000 according to the manufacturer’s manual. Cells were then seeded into a 96-well black plate with a cell density of 2 × 10^4 cells/100 μL per well for a 16-h culture. On the next day, cells were incubated for 45 min with reagents (100 μL/well) of Calcium-5 Assay Kit (Molecular Devices, San Jose, CA, USA). Then, cells were pre-treated with indicated concentrations of L001 for 15 min and stimulated with PGE2 (EC80). The calcium flux was detected subsequently by a Flexstation® 3 Multi-Mode Microplate Reader (Molecular Devices, San Jose, CA, USA).

The subject of data set [2] is Pan02 cells. In words: Cell viability assay (MTS), Pan02. Format: cell-based, murine. Particulars: 72 h. As for the experimental part: (§3) Cells were seeded into 96-well plates and treated with varied concentrations of compounds for 72 hrs. Cell viabilities were determined by using MTS reagent (Promega, Madison, WI, USA) according to the manufacturer’s manual. Spectrophotometric absorbance at 490 nm was measured by Flexstation® 3 Multi-Mode Microplate Reader (Molecular Devices, San Jose, CA, USA). The experiments were independently repeated three times.

The subject of data set [3] is BxPC-3 cells. In words: 3D Matrigel tumor spheroid invasion assay, BxPC-3. Format: cell-based, human. As to conditions: 0.1 μM PGE2, day 7. As for the experimental part: (§4) The 3D Matrigel invasion assay was performed as described. Pan02 and BxPC-3 cells were plated above a layer of Matrigel (ThermoFisher, Shanghai, China) and covered with growth medium containing 10% Matrigel. The culture medium containing different concentrations of compounds was changed every two days. After 7 days, cells with stellate invasive structure were photographed (OLYMPUS, Tokyo, Japan).

For data set [4], the system named is YAP, CYR61, CTGF, Vimentin, Snail, E-cadherin mRNA in BxPC-3 cells. In words: Real-time qPCR of YAP, YAP target genes and EMT markers, BxPC-3. Format: cell-based, human. As to conditions: 12 h. As for the experimental part:
Total RNA was extracted from cells using TRIzol reagent. The cDNA was synthesized by RT-PCR kit (Vazyme Biotech, Nanjing, China). The band intensity was determined by the gel image analysis system (Bio-Rad, Hercules, CA, USA). SYBR Green-based qPCR (Yeason, Shanghai, China) was conducted subsequently. Relative mRNA levels of target genes were normalized with β-actin. The sequences of primers are listed in Supplementary Table S1. The raw data are listed in Supplementary Table S2.

In data set [5] the test system is Pan02 cells. Put plainly: 3D Matrigel tumor spheroid invasion assay, Pan02. Type of data set: cell-based, murine. As to conditions: 0.1 μM PGE2, day 7. As for the experimental part:
as §4

For data set [6], the target named is T2, EP4 (Homo sapiens, UniProt P35408). Put plainly: TANGO assay (EP4/β-arrestin2 interaction). Type of data set: cell-based. The arrangement: tTA transcription factor (C); expressed in transfected cells; host or cells: CHO-K1. As to the method:
TANGO assay was performed as described previously with some modification. Briefly, CHO-K1 cells were co-transfected with plasmids of EP4-TANGO, β-arrestin-TEV and tTA-luc at a ratio of 0.5:1:1. After 4 h, transfected cells were seeded into 96-well plates and cultured overnight. Then, cells were starved for 5 h and treated with different concentrations of compounds. After incubation for 16 h, cells were lysed and the luciferase activities were determined using Dual-Luciferase Reporter Assay Kit (Promega, Madison, WI, USA).

The test system of data set [7] is Pan02-Luc hepatic metastasis. Put plainly: Pan02-Luc liver metastasis model with bioluminescent imaging. Type of data set: in vivo, C57BL/6 mice. As to the method: as §1
Mouse liver tissues were harvested, fixed, paraffin embedded, and sectioned (8 μm). The tissues were permeabilized with 0.25% TritonX-100 at room temperature for 15 min, blocked with 1% FBS in PBS, and followed by incubation in primary antibodies at 4 °C overnight: rabbit anti-YAP (1:50 dilution, ab205270, abcam). The sections were then washed with PBS, incubated with anti-rabbit secondary antibody for 2 h and dyed with DAPI (10 μg/mL in PBS) for 5 min at room temperature. Slides were mounted using DPX Mountant (Electron Microscopy Sciences) and images were obtained by inverted fluorescence microscope (Olympus, Tokyo, Japan).

The test system of data set [8] is YAP/TEAD reporter in Pan02 cells. Put plainly: TEAD-driven luciferase reporter assay, Pan02. Format: cell-based, murine. As to conditions: 16 h. As to the method: CHO-K1 cells or pancreatic cancer cell lines were transfected with a cAMP responsive element (CRE) reporter or TEAD reporter using lipofectamine 2000 according to the manufacturer’s manual. […] Then, cells were lysed and luciferase activities were determined using Dual-Luciferase Reporter Assay Kit (Promega, Madison, WI, USA).
On the technique in general: Reporter assays use an easily measured gene product as a stand-in for the process of interest.

The subject of data set [9] is BxPC-3 cells. Put plainly: Transwell migration assay, BxPC-3. Type of data set: cell-based, human. As to conditions: BxPC-3; with PGE2; 24 h. As for the experimental part:
The transwell assay was conducted as described previously, using 8 μm pore transwell inserts (Corning, NY, USA). Cells were suspended in serum-free DMEM and seeded into upper chambers at appropriate density. The bottom chamber was filled with DMEM supplemented with 10% fetal bovine serum and indicated concentrations of PGE2. The compounds were added in both upper and bottom chambers. […] Migrated cells were counted and quantified using image J.

Data set [10] deals with BxPC-3 cells. Put plainly: Cell viability assay (MTS), BxPC-3. Format: cell-based, human. As to conditions: 72 h. As for the experimental part:
as §3

Data set [11] addresses T2, EP4. In words: Calcium flux assay, human EP4. Format: cell-based. Set-up: expressed in transfected cells; host or cells: CHO-Gα16. As for the experimental part: as §2
In general terms: A change in cytosolic calcium serves as a functional read-out for many receptors and channels.

T2 sequence (P35408 whole entry): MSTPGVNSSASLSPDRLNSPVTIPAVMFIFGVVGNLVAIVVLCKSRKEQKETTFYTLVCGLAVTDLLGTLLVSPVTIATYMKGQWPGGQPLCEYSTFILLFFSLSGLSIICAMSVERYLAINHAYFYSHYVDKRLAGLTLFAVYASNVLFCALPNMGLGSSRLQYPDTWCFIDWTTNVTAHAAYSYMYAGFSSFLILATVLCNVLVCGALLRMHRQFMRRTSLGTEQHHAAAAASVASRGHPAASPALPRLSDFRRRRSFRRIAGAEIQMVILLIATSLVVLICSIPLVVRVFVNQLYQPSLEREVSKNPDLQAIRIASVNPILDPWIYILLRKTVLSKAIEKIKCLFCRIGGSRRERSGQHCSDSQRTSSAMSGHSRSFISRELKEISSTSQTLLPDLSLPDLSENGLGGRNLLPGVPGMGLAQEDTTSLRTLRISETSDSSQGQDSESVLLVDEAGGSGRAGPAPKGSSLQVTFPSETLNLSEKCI
T1 sequence (P43114 whole entry): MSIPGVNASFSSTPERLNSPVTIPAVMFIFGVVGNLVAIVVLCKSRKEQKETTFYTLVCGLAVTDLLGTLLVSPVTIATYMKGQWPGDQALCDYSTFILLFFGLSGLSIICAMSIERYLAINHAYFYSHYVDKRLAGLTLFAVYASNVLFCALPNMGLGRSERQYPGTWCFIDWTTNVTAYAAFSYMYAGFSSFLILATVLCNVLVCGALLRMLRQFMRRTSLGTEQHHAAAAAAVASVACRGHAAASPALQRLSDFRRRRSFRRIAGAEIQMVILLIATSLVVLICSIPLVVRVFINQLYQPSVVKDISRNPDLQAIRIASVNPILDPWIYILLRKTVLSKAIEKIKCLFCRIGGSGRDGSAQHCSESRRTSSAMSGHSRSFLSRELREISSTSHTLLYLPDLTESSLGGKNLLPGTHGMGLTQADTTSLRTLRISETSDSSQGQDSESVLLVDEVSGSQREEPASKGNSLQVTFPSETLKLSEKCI

For the molecule `C[C@H](NC(=O)c1c(Cc2cccc(C(F)(F)F)c2)sc2c1CCOC2)c1ccc(C(=O)O)cc1` [L001], in data set [1], the body weight loss entry is “barely found”. In addition, the IC50 on rat EP4 came to 14.2 ± 0.88 nM; against EP4 [6], 0.16 ± 0.03 nM; at EP4 [11] it was 1.47 ± 0.02 nM. Besides, the cell viability entry with Pan02 cells [2] and in the data set with BxPC-3 cells [10] was “did not affect the cell viabilities” in each case. Further, the “spheroid invasion morphology (filopodium-like protrusions)” value in the data set with BxPC-3 cells [3] and in the data set on Pan02 cells [5] was “completely retracted PGE2-induced membrane surface projections” each time. The “PGE2-aroused upregulation of mRNA levels of Vimentin and Snail” value in data set [4] is reported as “remarkably abrogated”. The “PGE2-mediated downregulation of E-cadherin's expression” value in data set [4] is “reversed”. Further, the “mRNA expression levels of YAP, CYR61 and CTGF induced by PGE2, in comparison with E7046” value in data set [4] (PGE2 0.1 μM, compound 10 μM) is on record as “stronger reductions”. In addition, the “YAP protein level in hepatic metastasis loci” value in [7] (IHC, L001 75 mg/kg p.o. daily) is “decreased protein levels of YAP”. Moreover, the “H&E imaging of liver sections” value in data set [7] (L001 or E7046 75 mg/kg p.o. daily, gemcitabine 25 mg/kg i.p. twice a week) is on record as “remarkably reduced metastatic clusters”. For the same molecule, the “reduction of Pan02 cell liver metastases (bioluminescence of separated livers)” value in data set [7] (L001 or E7046 75 mg/kg p.o. daily, gemcitabine 25 mg/kg i.p. twice a week, n = 6) was found to be 85.14%. The “reduction in median luminescence signal compared with vehicle control group” value in data set [7] (day 28, L001 or E7046 75 mg/kg p.o. daily, gemcitabine 25 mg/kg i.p. twice a week, n = 6) was determined as 80.57%. This molecule also came in with a median survival in data set [7] (n = 9, L001 or E7046 75 mg/kg p.o. daily, gemcitabine 25 mg/kg i.p. twice a week, control 34 days) of 42 days. For the same molecule, in [7] (qPCR, L001 75 mg/kg p.o. daily), the “mRNA expressions of Vimentin and Snail in hepatic metastasis loci” value is given as “reduced the mRNA expressions”. Further, in data set [8], the “PGE2-driven YAP/TEAD reporter activity” value was “remarkably suppressed”. In the data set on BxPC-3 cells [9], the “migrated cells in the lower layer of the transwell” value is recorded as “reduced migrated cells”. Further, the “antagonism efficacy on EP4 compared with E7046” value at EP4 [11] (calcium flux assay) is reported as “over 5 fold”.
